# Laboratory results from patent US20230413814A1, “A METHOD FOR REMOVING A BIOFILM” (TECHNOLOGICAL UNIVERSITY DUBLIN, priority 2020, published 2023).
# Legend:
# [1] = system: Enterococcus faecalis ATCC 7080; test: Biofilm formation in 96 well plate, crystal violet assay; type: cell-based; conditions: for reduction of biofilm formation versus control: 24 hours, 37° C., FIG. 1 B
# Procedure: (§1) FIG. 1: The effect of varying concentrations of DHA on the ability of Klebsiella pneumoniae NCIMB 418 (A) and Enterococcus faecalis ATCC 7080 (B) to form a biofilm in vitro. (10^6 CFU/well was incubated with various concentrations of DHA in a 96 well plate for 24 hours statically at 37° C. Biofilm formation was assessed using the crystal violet assay. Data represents the mean±SD for six independent experiments, carried out in triplicate. One-way ANOVA was performed for statistical analysis. *****P<0.001 compared to both the control (no DHA) and vehicle control (1% DMSO).
# (§2) The effect of varying concentrations of DHA on the ability of Klebsiella pneumoniae NCIMB 418 and Enterococcus faecalis ATCC 7080 to form a biofilm in vitro was investigated. 10^6 CFU/well was incubated with various concentrations of DHA in a 96 well plate for 24 hours statically at 37° C. Biofilm formation was assessed using the crystal violet assay. Data represents the mean±SD for six independent experiments, carried out in triplicate. The assay involved seeding cells at 10^6 CFU/ml in media with DHA. Cells were then left for 24 hrs to form biofilms before washing and staining with Crystal Violet. Crystal violet adhered to cells stuck to the sides of the tube/well. The samples were washed again to remove any unbound dye before dissolving the stain in acetic acid and the reading was measured in a spectrophotometer. The colour intensity relates to the level of biofilm present. The more colour the more bacteria in the biofilm (Merrit, J. H, et al., (2005) “Growing and Analysing Static Biofilms”, Current Protocols in Microbiology, Chapter 1(July), p. Unit 1B.1.).
# [2] = system: Klebsiella pneumoniae NCIMB 418; test: as above; type: cell-based; conditions: for reduction of biofilm formation versus control: 24 hours, 37° C., FIG. 1 A
# Procedure: as §1, §2
# [3] = system: human periodontal ligament cells (hPDLCs); parameters: dose or concentration left out as unconfirmed; conditions: exposed for 24 and 48 hours; cited from earlier work
# [4] = system: human gingival fibroblasts (HGFs); parameters: dose or concentration left out as unconfirmed; conditions: exposed for 24 and 48 hours; cited from earlier work
# [5] = summary statement on FIG. 1, concentration not stated
compound,measurement,setting,value
"CC/C=C\C/C=C\C/C=C\C/C=C\C/C=C\C/C=C\CCC(=O)O [DHA, docosahexaenoic acid]",reduction of biofilm formation versus control,[1]; DHA 6.25 μM,~20%
same,reduction of biofilm formation versus control,[1]; DHA 100 μM,~65%
same,reducing biofilm formation,[1]; [5],approximately 60%
same,reduction of biofilm formation versus control,[2]; DHA 6.25 μM,~40%
same,reduction of biofilm formation versus control,[2]; DHA 100 μM,~65%
same,reducing biofilm formation,[2]; [5],approximately 60%
same,cytotoxic effects,[3],exhibited cytotoxic effects
same,cytotoxic effects,[4],exhibited cytotoxic effects
